Experimental data from ChEMBL document CHEMBL5696442, “Discovery of type II inhibitors of TGFβ-activated kinase 1 (TAK1) and mitogen-activated protein kinase kinase kinase kinase 2 (MAP4K2)” (J Med Chem, 2015).
Active and inactive are the calls of the source. The calls are words filed in the database; no cut-off is given here.

Tests used:
[1] = target: 1-phosphatidylinositol 3-phosphate 5-kinase (Homo sapiens) (UniProt Q9Y2I7); assay: Inhibition of PIP5K3 ATP labeling site in human Huh-7 cell lysate at 1 uM by KiNativ Profiling analysis relative to control; type: subcellular
Sequence of 1-phosphatidylinositol 3-phosphate 5-kinase (Homo sapiens) (Q9Y2I7 whole entry): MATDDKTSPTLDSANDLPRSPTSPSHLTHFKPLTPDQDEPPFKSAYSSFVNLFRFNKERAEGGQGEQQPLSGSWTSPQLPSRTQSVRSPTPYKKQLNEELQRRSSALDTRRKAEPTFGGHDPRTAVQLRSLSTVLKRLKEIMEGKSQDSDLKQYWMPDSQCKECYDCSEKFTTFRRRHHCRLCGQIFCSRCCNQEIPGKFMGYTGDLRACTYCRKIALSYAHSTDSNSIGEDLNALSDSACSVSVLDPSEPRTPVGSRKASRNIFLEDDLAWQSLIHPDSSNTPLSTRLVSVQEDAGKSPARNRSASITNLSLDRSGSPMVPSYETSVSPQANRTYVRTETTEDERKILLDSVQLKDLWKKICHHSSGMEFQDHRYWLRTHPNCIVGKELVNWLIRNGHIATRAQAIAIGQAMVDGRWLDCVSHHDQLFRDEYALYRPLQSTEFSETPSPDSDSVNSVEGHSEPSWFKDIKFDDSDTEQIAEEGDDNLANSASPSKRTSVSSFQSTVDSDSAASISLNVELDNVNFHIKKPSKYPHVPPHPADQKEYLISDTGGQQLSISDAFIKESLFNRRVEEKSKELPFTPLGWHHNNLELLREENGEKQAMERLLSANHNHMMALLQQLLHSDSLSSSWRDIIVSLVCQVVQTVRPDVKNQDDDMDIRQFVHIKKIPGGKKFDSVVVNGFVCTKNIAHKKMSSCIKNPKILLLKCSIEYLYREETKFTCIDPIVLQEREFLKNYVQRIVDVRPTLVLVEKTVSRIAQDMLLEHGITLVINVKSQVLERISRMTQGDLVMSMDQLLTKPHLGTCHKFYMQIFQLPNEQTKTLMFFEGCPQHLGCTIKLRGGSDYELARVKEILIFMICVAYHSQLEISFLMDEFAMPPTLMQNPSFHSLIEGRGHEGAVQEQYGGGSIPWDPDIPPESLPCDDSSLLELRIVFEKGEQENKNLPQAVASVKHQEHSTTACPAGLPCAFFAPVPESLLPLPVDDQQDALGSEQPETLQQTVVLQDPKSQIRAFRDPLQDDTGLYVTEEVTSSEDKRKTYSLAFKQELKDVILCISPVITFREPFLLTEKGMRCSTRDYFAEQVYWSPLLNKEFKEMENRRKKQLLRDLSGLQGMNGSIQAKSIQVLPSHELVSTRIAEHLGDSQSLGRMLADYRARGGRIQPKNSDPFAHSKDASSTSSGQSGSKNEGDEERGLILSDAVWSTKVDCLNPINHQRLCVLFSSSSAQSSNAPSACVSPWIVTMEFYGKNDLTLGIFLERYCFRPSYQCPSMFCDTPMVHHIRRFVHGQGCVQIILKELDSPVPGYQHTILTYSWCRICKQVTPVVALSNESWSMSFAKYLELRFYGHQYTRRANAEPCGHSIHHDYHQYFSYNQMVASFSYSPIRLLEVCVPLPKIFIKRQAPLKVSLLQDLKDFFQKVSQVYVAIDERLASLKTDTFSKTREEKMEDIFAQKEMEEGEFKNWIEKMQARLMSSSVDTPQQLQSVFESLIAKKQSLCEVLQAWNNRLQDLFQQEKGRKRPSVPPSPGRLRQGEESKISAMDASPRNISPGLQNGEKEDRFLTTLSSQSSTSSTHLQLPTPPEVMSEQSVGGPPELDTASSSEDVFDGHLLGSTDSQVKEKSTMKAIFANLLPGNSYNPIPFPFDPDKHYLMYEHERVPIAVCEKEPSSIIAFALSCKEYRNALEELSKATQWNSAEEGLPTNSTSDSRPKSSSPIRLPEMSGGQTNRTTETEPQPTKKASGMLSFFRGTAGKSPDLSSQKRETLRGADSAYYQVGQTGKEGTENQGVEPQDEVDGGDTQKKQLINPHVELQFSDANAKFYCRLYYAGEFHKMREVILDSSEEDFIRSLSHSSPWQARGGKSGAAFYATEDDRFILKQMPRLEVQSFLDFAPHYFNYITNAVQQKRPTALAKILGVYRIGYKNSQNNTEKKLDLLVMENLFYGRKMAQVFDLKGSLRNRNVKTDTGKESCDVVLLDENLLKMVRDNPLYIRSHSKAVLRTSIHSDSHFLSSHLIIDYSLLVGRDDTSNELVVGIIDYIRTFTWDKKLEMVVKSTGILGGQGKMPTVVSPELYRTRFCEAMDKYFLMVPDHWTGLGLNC

[2] = target: Serine/threonine-protein kinase PLK1 (Homo sapiens) (UniProt P53350); assay: Inhibition of PLK1 Lys1 labeling site harbouring EVFAGKIVPK in human Huh-7 cell lysate at 1 uM by KiNativ Profiling analysis relative to control; type: subcellular
Sequence of Serine/threonine-protein kinase PLK1 (Homo sapiens) (P53350 whole entry): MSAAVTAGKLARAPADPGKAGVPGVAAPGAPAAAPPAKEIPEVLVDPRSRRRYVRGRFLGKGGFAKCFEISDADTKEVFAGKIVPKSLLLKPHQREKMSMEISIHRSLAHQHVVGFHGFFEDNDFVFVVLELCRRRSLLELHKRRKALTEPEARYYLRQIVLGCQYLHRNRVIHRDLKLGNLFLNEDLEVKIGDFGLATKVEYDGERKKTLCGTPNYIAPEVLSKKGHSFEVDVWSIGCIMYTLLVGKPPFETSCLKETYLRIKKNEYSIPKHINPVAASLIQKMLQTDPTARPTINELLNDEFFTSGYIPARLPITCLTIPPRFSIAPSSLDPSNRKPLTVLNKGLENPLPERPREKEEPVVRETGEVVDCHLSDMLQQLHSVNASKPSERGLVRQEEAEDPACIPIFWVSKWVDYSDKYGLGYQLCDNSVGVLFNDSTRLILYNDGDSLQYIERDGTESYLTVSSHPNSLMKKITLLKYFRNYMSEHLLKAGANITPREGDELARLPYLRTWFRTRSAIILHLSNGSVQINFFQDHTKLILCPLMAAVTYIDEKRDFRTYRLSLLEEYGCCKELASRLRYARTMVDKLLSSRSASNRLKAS

[3] = target: Proto-oncogene tyrosine-protein kinase ROS (Homo sapiens) (UniProt P08922); assay: Inhibition of ROS1 (unknown origin) at 10 uM by Ambit Kinomescan binding assay
[4] = target: Dual specificity testis-specific protein kinase 1 (Homo sapiens) (UniProt Q15569); assay: Inhibition of TESK1 (unknown origin) at 10 uM by Ambit Kinomescan binding assay
[5] = target: Serine/threonine-protein kinase 32B (Homo sapiens) (UniProt Q9NY57); assay: Inhibition of YANK2 (unknown origin) at 10 uM by Ambit Kinomescan binding assay
[6] = target: Tyrosine-protein kinase Fyn (Homo sapiens) (UniProt P06241); assay: Inhibition of FYN ACT labeling site in human Huh-7 cells at 1 uM by KiNativ Profiling analysis relative to control; type: cell-based
[7] = target: Serine/threonine-protein kinase A-Raf (Homo sapiens) (UniProt P10398); assay: Inhibition of ARAF Lys2 labeling site in human A-375 cells at 0.05 uM by KiNativ Profiling analysis relative to control; type: cell-based
Sequence of Serine/threonine-protein kinase A-Raf (Homo sapiens) (P10398 whole entry): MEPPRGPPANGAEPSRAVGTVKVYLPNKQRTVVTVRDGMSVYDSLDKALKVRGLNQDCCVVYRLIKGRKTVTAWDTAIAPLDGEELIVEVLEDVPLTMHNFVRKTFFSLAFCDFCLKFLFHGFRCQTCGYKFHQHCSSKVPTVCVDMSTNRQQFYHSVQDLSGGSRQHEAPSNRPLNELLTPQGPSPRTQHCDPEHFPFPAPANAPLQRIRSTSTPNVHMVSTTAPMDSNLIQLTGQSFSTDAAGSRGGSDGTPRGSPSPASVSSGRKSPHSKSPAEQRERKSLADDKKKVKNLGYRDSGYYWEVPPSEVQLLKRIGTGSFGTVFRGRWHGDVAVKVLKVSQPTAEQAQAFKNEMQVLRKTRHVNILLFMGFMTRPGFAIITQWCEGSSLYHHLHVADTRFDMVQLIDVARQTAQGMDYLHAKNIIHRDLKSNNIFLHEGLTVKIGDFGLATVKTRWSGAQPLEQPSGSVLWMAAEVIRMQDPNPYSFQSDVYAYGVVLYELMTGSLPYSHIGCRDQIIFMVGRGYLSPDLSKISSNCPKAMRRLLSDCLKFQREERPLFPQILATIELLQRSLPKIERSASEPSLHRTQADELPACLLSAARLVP

[8] = target: Mitogen-activated protein kinase 4 (Homo sapiens) (UniProt P31152); assay: Inhibition of ERK4 (unknown origin) at 10 uM by Ambit Kinomescan binding assay
[9] = target: Tyrosine-protein kinase Lck (Homo sapiens) (UniProt P06239); assay: Inhibition of LCK (unknown origin) at 10 uM by Ambit Kinomescan binding assay relative to control
Sequence of Tyrosine-protein kinase Lck (Homo sapiens) (P06239 2-509 limits assumed): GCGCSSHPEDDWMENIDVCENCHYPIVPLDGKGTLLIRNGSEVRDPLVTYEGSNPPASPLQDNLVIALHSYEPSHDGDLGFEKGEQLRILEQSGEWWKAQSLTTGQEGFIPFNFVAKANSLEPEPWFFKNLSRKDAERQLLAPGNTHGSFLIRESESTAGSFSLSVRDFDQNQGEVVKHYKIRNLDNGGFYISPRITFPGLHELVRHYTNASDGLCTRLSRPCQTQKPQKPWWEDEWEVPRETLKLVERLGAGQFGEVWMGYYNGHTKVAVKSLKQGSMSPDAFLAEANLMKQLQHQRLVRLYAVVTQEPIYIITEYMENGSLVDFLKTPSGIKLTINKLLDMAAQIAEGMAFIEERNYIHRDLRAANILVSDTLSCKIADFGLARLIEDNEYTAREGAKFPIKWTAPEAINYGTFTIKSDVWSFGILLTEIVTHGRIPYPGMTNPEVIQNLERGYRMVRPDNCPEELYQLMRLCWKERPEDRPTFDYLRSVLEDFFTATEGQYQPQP

[10] = target: T1, Mitogen-activated protein kinase kinase kinase 6 (Homo sapiens) (UniProt O95382); assay: Inhibition of MAP3K6 Lys1 labeling site harbouring IAIKEIPER in human A-375 cells at 0.05 uM by KiNativ Profiling analysis relative to control; type: cell-based
T1 sequence (whole entry): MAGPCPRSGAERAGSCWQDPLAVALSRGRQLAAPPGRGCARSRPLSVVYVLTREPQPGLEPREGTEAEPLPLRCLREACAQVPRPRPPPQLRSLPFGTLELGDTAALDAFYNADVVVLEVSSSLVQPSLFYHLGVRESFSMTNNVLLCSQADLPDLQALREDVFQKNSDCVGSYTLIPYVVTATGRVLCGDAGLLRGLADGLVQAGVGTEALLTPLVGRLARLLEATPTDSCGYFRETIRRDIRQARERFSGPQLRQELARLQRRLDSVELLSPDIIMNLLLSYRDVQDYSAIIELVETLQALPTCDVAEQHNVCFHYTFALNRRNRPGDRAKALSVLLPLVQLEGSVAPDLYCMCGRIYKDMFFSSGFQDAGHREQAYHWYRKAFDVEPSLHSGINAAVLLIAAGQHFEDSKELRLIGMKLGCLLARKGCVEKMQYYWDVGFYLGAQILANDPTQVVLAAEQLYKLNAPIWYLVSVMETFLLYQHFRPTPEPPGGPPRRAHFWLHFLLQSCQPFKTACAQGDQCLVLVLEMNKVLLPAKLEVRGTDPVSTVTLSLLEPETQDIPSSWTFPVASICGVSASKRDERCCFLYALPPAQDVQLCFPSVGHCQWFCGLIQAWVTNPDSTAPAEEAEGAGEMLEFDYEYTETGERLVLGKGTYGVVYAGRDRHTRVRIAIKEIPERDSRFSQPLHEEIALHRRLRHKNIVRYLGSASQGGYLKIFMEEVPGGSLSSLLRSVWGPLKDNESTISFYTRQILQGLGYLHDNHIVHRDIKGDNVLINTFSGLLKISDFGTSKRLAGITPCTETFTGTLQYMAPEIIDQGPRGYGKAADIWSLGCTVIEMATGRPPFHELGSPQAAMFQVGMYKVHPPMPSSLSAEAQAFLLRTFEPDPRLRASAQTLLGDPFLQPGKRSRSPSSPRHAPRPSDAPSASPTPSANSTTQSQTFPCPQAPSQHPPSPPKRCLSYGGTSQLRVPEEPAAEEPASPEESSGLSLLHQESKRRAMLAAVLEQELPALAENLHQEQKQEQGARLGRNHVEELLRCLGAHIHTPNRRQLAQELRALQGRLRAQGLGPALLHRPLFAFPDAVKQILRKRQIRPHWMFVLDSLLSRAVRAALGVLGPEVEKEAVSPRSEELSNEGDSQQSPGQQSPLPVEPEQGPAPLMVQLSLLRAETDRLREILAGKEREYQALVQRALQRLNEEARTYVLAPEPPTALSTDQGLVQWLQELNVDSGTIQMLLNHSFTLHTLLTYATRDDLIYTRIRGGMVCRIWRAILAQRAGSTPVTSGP

[11] = target: Tyrosine-protein kinase JAK2 (Homo sapiens) (UniProt O60674); assay: Inhibition of JAK2 JH1 catalytic domain (unknown origin) at 10 uM by Ambit Kinomescan binding assay relative to control
[12] = target: Serine/threonine-protein kinase Nek6 (Homo sapiens) (UniProt Q9HC98); assay: Inhibition of NEK6 (unknown origin) at 1 uM by Ambit Kinomescan binding assay relative to control; values are per cent of control
Sequence of Serine/threonine-protein kinase Nek6 (Homo sapiens) (Q9HC98 whole entry): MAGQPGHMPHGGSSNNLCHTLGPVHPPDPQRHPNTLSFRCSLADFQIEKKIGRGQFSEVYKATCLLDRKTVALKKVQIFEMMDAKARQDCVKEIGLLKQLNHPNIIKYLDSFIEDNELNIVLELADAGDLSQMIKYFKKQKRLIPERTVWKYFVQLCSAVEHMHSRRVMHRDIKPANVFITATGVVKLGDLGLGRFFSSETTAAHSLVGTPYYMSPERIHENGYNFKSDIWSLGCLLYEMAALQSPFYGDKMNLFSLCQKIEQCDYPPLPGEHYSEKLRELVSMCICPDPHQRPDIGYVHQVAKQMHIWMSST

[13] = system: Tyrosine-protein kinase ABL1 (Homo sapiens), P00519 [F317I]; assay: Inhibition of phosphorylated ABL1 F317I mutant (unknown origin) at 1 uM by Ambit Kinomescan binding assay relative to control; values are per cent of control
[14] = target: Epithelial discoidin domain-containing receptor 1 (Homo sapiens) (UniProt Q08345); assay: Inhibition of DDR1 (unknown origin) at 1 uM by Ambit Kinomescan binding assay relative to control; values are per cent of control
Sequence of Epithelial discoidin domain-containing receptor 1 (Homo sapiens) (Q08345 whole entry, the tested form may be a part): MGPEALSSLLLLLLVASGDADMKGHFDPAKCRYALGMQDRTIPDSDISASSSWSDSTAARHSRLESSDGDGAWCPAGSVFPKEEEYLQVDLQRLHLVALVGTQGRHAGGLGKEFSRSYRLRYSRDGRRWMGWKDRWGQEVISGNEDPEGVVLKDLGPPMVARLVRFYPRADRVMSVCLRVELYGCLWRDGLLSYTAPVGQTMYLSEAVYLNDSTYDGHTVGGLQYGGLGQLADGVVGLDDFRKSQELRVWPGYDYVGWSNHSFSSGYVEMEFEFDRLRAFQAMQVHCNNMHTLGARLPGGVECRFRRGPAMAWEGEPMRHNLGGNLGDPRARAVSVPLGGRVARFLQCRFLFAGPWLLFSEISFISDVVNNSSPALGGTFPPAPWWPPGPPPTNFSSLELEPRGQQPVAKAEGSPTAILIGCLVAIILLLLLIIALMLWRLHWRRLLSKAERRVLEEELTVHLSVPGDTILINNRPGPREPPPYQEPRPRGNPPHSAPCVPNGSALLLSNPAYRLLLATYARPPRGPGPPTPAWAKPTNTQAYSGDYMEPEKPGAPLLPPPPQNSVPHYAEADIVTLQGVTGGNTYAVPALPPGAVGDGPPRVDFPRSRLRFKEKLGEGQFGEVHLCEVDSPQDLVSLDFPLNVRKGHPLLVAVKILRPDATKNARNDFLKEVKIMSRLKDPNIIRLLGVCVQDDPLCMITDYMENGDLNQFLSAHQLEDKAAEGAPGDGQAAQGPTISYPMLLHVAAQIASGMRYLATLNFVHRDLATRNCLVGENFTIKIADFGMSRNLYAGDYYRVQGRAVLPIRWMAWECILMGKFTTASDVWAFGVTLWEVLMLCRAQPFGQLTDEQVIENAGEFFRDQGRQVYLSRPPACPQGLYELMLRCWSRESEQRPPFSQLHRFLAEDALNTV

`CNc1cc(Oc2cc(C(=O)Nc3cc(N4CCN(C)CC4)cc(C(F)(F)F)c3)ccc2C)ncn1` was tested, and the inhibition [1] was 0.7% and the inhibition [2] was 1.8%.

With `CCN1CCN(Cc2ccc(NC(=O)c3ccc(C)c(Oc4ccnc5[nH]ccc45)c3)cc2C(F)(F)F)CC1` the inhibition [3] was “inactive”, the inhibition [4] was “inactive” and the inhibition [5] was “inactive”. The inhibition [6] was -0.3%, the inhibition [7] was 39.3% and the inhibition [8] was “inactive”. The inhibition [9] was 0.8%, the inhibition [10] was 10.8% and the inhibition [11] was 11%.

In the case of `CCN1CCN(Cc2ccc(NC(=O)c3ccc(C)c(/C=C/c4cnc5[nH]ccc5c4OC)c3)cc2C(F)(F)F)CC1`, the residual activity [12] is reported as 100%, the percent of control [13] is reported as 22% and the % of control [14] is reported as 0.05%.
